Each block holds one compound with its values, some of them ahead of it. Active and inactive are the calls of the source.
How the values were obtained:
Format in all cases: functional
[1] = target: T1, Apoptotic protease-activating factor 1 (Homo sapiens, UniProt O14727); test: SAR analysis of small molecule Inhibitors of Apaf-1 in a Fluorescent assay - set 2.; settings: read-out: IC50_Mean
T1 sequence (O14727 whole entry): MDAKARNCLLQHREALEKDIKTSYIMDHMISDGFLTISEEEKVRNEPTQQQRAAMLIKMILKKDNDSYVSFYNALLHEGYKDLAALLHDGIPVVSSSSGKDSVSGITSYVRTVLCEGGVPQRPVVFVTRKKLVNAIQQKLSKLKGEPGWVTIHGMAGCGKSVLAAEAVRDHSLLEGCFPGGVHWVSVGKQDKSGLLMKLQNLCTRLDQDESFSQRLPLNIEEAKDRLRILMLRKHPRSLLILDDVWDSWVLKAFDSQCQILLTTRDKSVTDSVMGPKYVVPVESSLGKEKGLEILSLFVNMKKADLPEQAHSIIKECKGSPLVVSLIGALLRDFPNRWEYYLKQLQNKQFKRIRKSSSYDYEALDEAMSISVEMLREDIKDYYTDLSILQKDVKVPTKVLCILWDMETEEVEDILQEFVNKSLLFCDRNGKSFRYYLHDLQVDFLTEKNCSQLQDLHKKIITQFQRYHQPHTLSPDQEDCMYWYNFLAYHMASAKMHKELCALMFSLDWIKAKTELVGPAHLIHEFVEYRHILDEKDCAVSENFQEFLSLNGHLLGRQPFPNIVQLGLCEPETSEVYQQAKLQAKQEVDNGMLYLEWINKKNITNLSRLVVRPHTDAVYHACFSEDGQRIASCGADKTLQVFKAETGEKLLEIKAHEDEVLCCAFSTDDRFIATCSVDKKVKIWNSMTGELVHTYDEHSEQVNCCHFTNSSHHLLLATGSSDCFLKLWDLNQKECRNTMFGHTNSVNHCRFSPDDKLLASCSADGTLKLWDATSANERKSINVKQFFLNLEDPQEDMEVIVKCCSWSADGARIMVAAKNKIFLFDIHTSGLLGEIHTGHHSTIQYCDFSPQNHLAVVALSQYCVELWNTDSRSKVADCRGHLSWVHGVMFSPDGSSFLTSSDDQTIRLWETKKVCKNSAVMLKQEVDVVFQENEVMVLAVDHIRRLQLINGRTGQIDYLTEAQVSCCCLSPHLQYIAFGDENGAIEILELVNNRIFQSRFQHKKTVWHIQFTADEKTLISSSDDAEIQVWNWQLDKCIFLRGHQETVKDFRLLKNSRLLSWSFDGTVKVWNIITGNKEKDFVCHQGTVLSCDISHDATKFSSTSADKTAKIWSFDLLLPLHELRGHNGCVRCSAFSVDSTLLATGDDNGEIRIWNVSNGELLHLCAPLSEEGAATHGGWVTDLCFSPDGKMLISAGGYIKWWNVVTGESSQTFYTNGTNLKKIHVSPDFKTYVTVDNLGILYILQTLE

[2] = SAR analysis of small molecule inhibitors of Apaf-1 using a LZ-Caspase-9/Caspase-3 Fluorescent Selectivity assay - Set 2.; settings: read-out: IC50_Mean
[3] = SAR analysis of small molecule activators of Apaf-1 using a LZ-Caspase-9/Caspase-3 Fluorescent Selectivity assay - Set 2.; settings: read-out: EC50_Mean
[4] = target: T1, Apoptotic protease-activating factor 1; test: SAR analysis of small molecule Activators of Apaf-1 in a Fluorescent assay - set 2.; settings: read-out: EC50_Mean
[5] = target: Vascular endothelial growth factor receptor 2 (Homo sapiens, UniProt P35968)
[6] = target: Aurora kinase B (Homo sapiens, UniProt Q96GD4)
[7] = target: Aurora kinase A (Homo sapiens, UniProt O14965);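 further: value from the Navigating the Kinome kinase panel profiling, panel entry STK6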
[8] = target: Cell division cycle 7-related protein kinase (Homo sapiens, UniProt O00311);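 further: value obtained from a kinome-wide kinase panel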
[9] = target: ALK tyrosine kinase receptor (Homo sapiens, UniProt Q9UM73);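 further: ALK tested as one member of a kinase panel screen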
Chain of ALK tyrosine kinase receptor (Q9UM73 whole entry): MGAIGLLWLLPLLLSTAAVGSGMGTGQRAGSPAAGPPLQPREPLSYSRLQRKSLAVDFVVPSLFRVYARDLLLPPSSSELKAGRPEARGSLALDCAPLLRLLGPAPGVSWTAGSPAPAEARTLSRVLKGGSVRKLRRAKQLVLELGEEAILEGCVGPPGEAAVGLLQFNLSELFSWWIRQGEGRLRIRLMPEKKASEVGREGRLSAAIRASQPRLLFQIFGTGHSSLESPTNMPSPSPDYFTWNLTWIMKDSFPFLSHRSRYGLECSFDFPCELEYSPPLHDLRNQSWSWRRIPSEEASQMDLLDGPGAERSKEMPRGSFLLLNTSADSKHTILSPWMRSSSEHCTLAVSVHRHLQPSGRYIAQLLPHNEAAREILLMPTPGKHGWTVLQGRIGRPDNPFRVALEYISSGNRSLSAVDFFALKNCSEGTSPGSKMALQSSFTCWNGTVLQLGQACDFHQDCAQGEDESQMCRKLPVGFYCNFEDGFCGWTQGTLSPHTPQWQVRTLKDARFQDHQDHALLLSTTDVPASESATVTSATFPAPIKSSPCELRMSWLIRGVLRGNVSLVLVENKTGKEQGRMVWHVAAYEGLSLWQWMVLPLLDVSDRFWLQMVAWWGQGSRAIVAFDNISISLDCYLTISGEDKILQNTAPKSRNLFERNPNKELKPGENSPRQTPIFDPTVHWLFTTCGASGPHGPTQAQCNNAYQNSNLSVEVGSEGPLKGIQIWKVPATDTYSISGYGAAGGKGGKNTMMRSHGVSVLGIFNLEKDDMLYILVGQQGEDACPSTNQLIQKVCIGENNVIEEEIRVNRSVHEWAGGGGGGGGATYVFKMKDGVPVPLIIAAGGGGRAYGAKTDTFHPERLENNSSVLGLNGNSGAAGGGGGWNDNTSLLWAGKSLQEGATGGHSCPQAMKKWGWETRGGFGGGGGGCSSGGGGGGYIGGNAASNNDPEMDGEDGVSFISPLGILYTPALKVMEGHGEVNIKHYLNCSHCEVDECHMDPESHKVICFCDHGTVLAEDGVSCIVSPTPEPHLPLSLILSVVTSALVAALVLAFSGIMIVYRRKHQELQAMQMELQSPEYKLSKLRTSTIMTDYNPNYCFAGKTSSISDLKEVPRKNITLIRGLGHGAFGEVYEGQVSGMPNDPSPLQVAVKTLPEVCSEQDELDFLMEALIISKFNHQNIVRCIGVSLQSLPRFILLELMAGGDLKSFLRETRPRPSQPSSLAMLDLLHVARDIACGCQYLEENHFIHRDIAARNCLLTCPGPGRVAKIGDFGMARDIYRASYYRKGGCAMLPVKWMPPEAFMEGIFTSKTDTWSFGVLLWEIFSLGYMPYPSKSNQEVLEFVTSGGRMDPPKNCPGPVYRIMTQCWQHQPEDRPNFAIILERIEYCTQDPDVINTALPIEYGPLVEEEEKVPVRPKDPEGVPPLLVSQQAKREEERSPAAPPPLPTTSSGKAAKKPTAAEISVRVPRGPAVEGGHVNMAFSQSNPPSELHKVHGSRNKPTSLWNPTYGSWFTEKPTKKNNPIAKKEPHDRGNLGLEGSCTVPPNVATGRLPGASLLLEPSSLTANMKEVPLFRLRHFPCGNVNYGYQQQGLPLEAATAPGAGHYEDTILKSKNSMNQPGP

Chain of Aurora kinase B (Q96GD4 whole entry): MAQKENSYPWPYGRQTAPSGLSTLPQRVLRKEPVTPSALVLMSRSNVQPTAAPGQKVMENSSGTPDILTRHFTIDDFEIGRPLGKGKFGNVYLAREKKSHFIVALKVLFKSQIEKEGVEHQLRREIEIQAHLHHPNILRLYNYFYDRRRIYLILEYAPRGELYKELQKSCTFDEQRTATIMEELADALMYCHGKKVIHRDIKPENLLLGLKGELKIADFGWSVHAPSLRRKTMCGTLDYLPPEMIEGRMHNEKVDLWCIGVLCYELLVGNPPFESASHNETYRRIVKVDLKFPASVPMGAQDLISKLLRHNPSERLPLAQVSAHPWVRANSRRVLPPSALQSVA
Chain of Cell division cycle 7-related protein kinase (O00311 whole entry): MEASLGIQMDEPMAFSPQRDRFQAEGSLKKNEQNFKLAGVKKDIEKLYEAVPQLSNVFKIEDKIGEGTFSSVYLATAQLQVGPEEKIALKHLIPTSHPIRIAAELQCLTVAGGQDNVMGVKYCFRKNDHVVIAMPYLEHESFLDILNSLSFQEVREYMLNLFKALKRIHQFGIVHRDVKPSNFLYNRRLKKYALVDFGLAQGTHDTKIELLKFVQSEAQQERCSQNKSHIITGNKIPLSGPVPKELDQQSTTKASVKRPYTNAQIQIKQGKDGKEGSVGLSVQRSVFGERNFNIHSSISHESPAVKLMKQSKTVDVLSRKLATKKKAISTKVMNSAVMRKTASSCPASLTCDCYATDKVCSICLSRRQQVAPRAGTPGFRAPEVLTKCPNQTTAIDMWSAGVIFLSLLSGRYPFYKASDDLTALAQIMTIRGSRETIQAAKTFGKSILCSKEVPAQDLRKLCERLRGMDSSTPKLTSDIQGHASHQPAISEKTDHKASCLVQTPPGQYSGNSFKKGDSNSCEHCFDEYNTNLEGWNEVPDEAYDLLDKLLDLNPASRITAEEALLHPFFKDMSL
Chain of Vascular endothelial growth factor receptor 2 (P35968 whole entry): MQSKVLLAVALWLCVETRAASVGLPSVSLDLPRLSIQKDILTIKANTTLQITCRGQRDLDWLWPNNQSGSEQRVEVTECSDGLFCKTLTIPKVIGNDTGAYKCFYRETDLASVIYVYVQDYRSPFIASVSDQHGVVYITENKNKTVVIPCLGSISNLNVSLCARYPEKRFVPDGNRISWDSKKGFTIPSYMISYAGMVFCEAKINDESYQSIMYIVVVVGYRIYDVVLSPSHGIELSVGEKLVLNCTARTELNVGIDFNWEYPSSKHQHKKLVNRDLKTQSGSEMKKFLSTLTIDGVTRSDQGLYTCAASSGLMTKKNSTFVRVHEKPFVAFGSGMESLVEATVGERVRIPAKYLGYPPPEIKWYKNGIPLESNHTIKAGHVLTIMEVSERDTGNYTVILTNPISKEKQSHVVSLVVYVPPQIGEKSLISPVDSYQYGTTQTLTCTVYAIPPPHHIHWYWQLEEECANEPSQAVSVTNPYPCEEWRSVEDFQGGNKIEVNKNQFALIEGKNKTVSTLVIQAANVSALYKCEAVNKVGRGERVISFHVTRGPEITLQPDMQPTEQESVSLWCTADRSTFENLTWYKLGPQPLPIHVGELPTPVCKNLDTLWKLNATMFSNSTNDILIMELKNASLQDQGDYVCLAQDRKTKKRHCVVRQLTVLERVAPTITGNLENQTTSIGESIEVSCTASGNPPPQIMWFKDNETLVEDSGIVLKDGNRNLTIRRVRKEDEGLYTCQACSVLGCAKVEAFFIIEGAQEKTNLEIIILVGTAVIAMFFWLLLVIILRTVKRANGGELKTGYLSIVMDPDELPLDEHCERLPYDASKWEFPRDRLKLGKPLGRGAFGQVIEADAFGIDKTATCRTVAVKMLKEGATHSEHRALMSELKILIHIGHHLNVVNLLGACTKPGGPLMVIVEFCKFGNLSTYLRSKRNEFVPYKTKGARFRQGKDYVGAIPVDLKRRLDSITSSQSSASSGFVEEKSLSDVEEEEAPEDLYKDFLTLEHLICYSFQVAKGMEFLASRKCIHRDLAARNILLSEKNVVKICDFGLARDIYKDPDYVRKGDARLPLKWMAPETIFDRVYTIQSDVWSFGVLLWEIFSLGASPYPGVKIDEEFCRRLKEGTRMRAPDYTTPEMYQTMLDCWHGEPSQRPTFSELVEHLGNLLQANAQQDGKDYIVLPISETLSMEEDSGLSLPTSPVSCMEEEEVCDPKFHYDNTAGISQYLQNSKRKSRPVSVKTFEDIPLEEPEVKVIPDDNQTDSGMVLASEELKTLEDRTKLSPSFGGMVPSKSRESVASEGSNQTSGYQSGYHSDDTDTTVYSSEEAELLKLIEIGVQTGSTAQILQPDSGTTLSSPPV
Chain of Aurora kinase A (O14965 whole entry): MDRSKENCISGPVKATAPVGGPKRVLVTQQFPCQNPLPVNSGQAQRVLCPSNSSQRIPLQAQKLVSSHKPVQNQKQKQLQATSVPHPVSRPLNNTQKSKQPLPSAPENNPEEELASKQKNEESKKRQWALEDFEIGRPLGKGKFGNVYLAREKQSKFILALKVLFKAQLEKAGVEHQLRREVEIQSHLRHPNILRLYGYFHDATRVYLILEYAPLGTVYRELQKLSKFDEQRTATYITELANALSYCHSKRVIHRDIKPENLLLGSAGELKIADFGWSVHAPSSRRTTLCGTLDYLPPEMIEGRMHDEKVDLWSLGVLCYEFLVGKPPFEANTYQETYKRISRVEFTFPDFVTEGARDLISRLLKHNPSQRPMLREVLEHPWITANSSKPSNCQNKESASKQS

- IC50 [1]: 53.1 µM (active)
- IC50 [2]: 43.4 µM (active)
SMILES: O=C1C(=O)N(Cc2ccc(Cl)c(Cl)c2)c2cc(Cl)ccc21

- EC50 [3]: > 100 µM (inactive)
- EC50 [4]: > 100 µM (inactive)
SMILES: O=C(O)C1CC(c2c(F)cccc2Cl)=NO1 (centres undefined)

- Ki [5]: 0.794 µM (active)
- Ki [6]: 0.0398 µM (active)
- Ki [7]: 0.398 µM (active)
SMILES: CS(=O)(=O)Nc1ccc2c(c1)C(=NO)c1ccccc1-2

- Ki [8]: 0.0794 µM (active)
- Ki [9]: 3.98 µM (active)
SMILES: OCCc1ccc(Nc2ncnc3[nH]cc(-c4ccccc4)c23)cc1

Reference: ChEMBL document CHEMBL1201862, “PubChem BioAssay data set” (2004)
